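These data come from cells grown in 96-well plates and exposed to compound for 48 hours at five concentrations. At the TGI there is no net growth.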
How the values were obtained:
Assay in all cases: inhibition of tumour cell growth, NCI panel, 48 h
OVCAR-4 ovarian = tested on: OVCAR-4 ovarian
NCI-H23 lung = tested on: NCI-H23 lung
NCI-H522 lung = tested on: NCI-H522 lung
U251 CNS = tested on: U251 CNS
RPMI-8226 leukemia = tested on: RPMI-8226 leukemia
HCC-2998 colon = tested on: HCC-2998 colon
A498 renal = tested on: A498 renal
MOLT-4 leukemia = tested on: MOLT-4 leukemia
CCRF-CEM leukemia = tested on: CCRF-CEM leukemia
OVCAR-3 ovarian = tested on: OVCAR-3 ovarian
NCI/ADR-RES ovarian = tested on: NCI/ADR-RES ovarian
786-0 renal = tested on: 786-0 renal
M14 melanoma = tested on: M14 melanoma
TK-10 renal = tested on: TK-10 renal
SK-MEL-28 melanoma = tested on: SK-MEL-28 melanoma
MALME-3M melanoma = tested on: MALME-3M melanoma
MDA-MB-231 breast = tested on: MDA-MB-231 breast
UACC-257 melanoma = tested on: UACC-257 melanoma
MDA-N = tested on: MDA-N
LOX IMVI melanoma = tested on: LOX IMVI melanoma
CAKI-1 renal = tested on: CAKI-1 renal
HOP-62 NSCLC = tested on: HOP-62 NSCLC
HOP-92 NSCLC = tested on: HOP-92 NSCLC
HCT-15 colon = tested on: HCT-15 colon
UO-31 renal = tested on: UO-31 renal
SR leukemia = tested on: SR leukemia
SW-620 colon = tested on: SW-620 colon
SNB-75 CNS = tested on: SNB-75 CNS
ACHN renal = tested on: ACHN renal
HL-60(TB) leukemia = tested on: HL-60(TB) leukemia
SF-268 CNS = tested on: SF-268 CNS
NCI-H460 lung = tested on: NCI-H460 lung
IGROV1 ovarian = tested on: IGROV1 ovarian
PC-3 prostate = tested on: PC-3 prostate
RXF 393 renal = tested on: RXF 393 renal
SN12C renal = tested on: SN12C renal
SK-MEL-2 melanoma = tested on: SK-MEL-2 melanoma
SF-539 CNS = tested on: SF-539 CNS
NCI-H226 lung = tested on: NCI-H226 lung
A549 NSCLC = tested on: A549 NSCLC
EKVX NSCLC = tested on: EKVX NSCLC
BT-549 breast = tested on: BT-549 breast
T-47D breast = tested on: T-47D breast
SK-MEL-5 melanoma = tested on: SK-MEL-5 melanoma
KM12 colon = tested on: KM12 colon
HCT-116 colon = tested on: HCT-116 colon
HS 578T breast = tested on: HS 578T breast
SK-OV-3 ovarian = tested on: SK-OV-3 ovarian
SF-295 CNS = tested on: SF-295 CNS
HT29 colon = tested on: HT29 colon
UACC-62 melanoma = tested on: UACC-62 melanoma
OVCAR-5 ovarian = tested on: OVCAR-5 ovarian
K-562 leukemia = tested on: K-562 leukemia
SNB-19 CNS = tested on: SNB-19 CNS
MCF7 breast = tested on: MCF7 breast
OVCAR-8 ovarian = tested on: OVCAR-8 ovarian
MDA-MB-435 = tested on: MDA-MB-435
DU-145 prostate = tested on: DU-145 prostate
COLO 205 colon = tested on: COLO 205 colon

## N/N=C(\C(=O)Nc1ccc([N+](=O)[O-])cc1)C(C1=Nc2cc([N+](=O)[O-])ccc2NC1)[N+](=O)[O-] (stereo not drawn)
OVCAR-4 ovarian
  TGI: > 100 µM
NCI-H23 lung
  TGI: > 100 µM
NCI-H522 lung
  TGI: > 100 µM
U251 CNS
  TGI: > 100 µM
RPMI-8226 leukemia
  TGI: > 100 µM
HCC-2998 colon
  TGI: > 100 µM
A498 renal
  TGI: > 100 µM
MOLT-4 leukemia
  TGI: > 100 µM
CCRF-CEM leukemia
  TGI: > 100 µM
OVCAR-3 ovarian
  TGI: > 100 µM
NCI/ADR-RES ovarian
  TGI: > 100 µM
786-0 renal
  TGI: > 100 µM
M14 melanoma
  TGI: > 100 µM
TK-10 renal
  TGI: > 100 µM
SK-MEL-28 melanoma
  TGI: > 100 µM
MALME-3M melanoma
  TGI: > 100 µM
MDA-MB-231 breast
  TGI: > 100 µM
UACC-257 melanoma
  TGI: > 100 µM
MDA-N
  TGI: > 100 µM
LOX IMVI melanoma
  TGI: > 100 µM
CAKI-1 renal
  TGI: > 100 µM
HOP-62 NSCLC
  TGI: > 100 µM
HOP-92 NSCLC
  TGI: > 100 µM
HCT-15 colon
  TGI: > 100 µM
UO-31 renal
  TGI: > 100 µM
SR leukemia
  TGI: > 100 µM
SW-620 colon
  TGI: > 100 µM
SNB-75 CNS
  TGI: > 100 µM
ACHN renal
  TGI: > 100 µM
HL-60(TB) leukemia
  TGI: > 100 µM
SF-268 CNS
  TGI: > 100 µM
NCI-H460 lung
  TGI: > 100 µM
IGROV1 ovarian
  TGI: > 100 µM
PC-3 prostate
  TGI: > 100 µM
RXF 393 renal
  TGI: > 100 µM
SN12C renal
  TGI: > 100 µM
SK-MEL-2 melanoma
  TGI: > 100 µM
SF-539 CNS
  TGI: > 100 µM
NCI-H226 lung
  TGI: > 100 µM
A549 NSCLC
  TGI: > 100 µM
EKVX NSCLC
  TGI: > 100 µM
BT-549 breast
  TGI: > 100 µM
T-47D breast
  TGI: > 100 µM
SK-MEL-5 melanoma
  TGI: > 100 µM
KM12 colon
  TGI: > 100 µM
HCT-116 colon
  TGI: > 100 µM
HS 578T breast
  TGI: > 100 µM
SK-OV-3 ovarian
  TGI: > 100 µM
SF-295 CNS
  TGI: > 100 µM
HT29 colon
  TGI: > 100 µM
UACC-62 melanoma
  TGI: > 100 µM
OVCAR-5 ovarian
  TGI: > 100 µM
K-562 leukemia
  TGI: > 100 µM
SNB-19 CNS
  TGI: > 100 µM
MCF7 breast
  TGI: > 100 µM
OVCAR-8 ovarian
  TGI: > 100 µM
MDA-MB-435
  TGI: > 100 µM

## COC(=O)C1CCC(=O)N1C(c1ccc2c(c1)OCO2)c1ccc2c(c1)OCO2 (stereo not drawn)
OVCAR-4 ovarian
  TGI: > 100 µM
NCI-H23 lung
  TGI: > 100 µM
NCI-H522 lung
  TGI: > 100 µM
U251 CNS
  TGI: > 100 µM
RPMI-8226 leukemia
  TGI: > 100 µM
HCC-2998 colon
  TGI: > 100 µM
A498 renal
  TGI: > 100 µM
MOLT-4 leukemia
  TGI: > 100 µM
CCRF-CEM leukemia
  TGI: > 100 µM
OVCAR-3 ovarian
  TGI: > 100 µM
NCI/ADR-RES ovarian
  TGI: > 100 µM
786-0 renal
  TGI: > 100 µM
M14 melanoma
  TGI: > 100 µM
TK-10 renal
  TGI: > 100 µM
SK-MEL-28 melanoma
  TGI: > 100 µM
MALME-3M melanoma
  TGI: > 100 µM
MDA-MB-231 breast
  TGI: > 100 µM
UACC-257 melanoma
  TGI: > 100 µM
MDA-N
  TGI: > 100 µM
LOX IMVI melanoma
  TGI: > 100 µM
CAKI-1 renal
  TGI: > 100 µM
HOP-62 NSCLC
  TGI: > 100 µM
HOP-92 NSCLC
  TGI: > 100 µM
HCT-15 colon
  TGI: > 100 µM
UO-31 renal
  TGI: > 100 µM
SR leukemia
  TGI: > 100 µM
SW-620 colon
  TGI: > 100 µM
SNB-75 CNS
  TGI: > 100 µM
ACHN renal
  TGI: > 100 µM
HL-60(TB) leukemia
  TGI: > 100 µM
SF-268 CNS
  TGI: > 100 µM
NCI-H460 lung
  TGI: > 100 µM
IGROV1 ovarian
  TGI: > 100 µM
PC-3 prostate
  TGI: > 100 µM
SN12C renal
  TGI: > 100 µM
SK-MEL-2 melanoma
  TGI: > 100 µM
SF-539 CNS
  TGI: > 100 µM
NCI-H226 lung
  TGI: > 100 µM
A549 NSCLC
  TGI: > 100 µM
DU-145 prostate
  TGI: > 100 µM
EKVX NSCLC
  TGI: > 100 µM
BT-549 breast
  TGI: > 100 µM
T-47D breast
  TGI: > 100 µM
SK-MEL-5 melanoma
  TGI: > 100 µM
KM12 colon
  TGI: > 100 µM
HCT-116 colon
  TGI: > 100 µM
COLO 205 colon
  TGI: > 100 µM
HS 578T breast
  TGI: > 100 µM
SK-OV-3 ovarian
  TGI: > 100 µM
SF-295 CNS
  TGI: > 100 µM
HT29 colon
  TGI: > 100 µM
UACC-62 melanoma
  TGI: > 100 µM
OVCAR-5 ovarian
  TGI: > 100 µM
K-562 leukemia
  TGI: > 100 µM
SNB-19 CNS
  TGI: > 100 µM
MCF7 breast
  TGI: > 100 µM
OVCAR-8 ovarian
  TGI: > 100 µM
MDA-MB-435
  TGI: > 100 µM

## Cn1c(=S)sc2nc3ccccc3n2c1=S
OVCAR-4 ovarian
  TGI: 42.3 µM
NCI-H23 lung
  TGI: 30.7 µM
NCI-H522 lung
  TGI: 15.1 µM
U251 CNS
  TGI: 25.1 µM
RPMI-8226 leukemia
  TGI: 88.1 µM
HCC-2998 colon
  TGI: 35.2 µM
A498 renal
  TGI: 46.9 µM
MOLT-4 leukemia
  TGI: 38.7 µM
CCRF-CEM leukemia
  TGI: 43.7 µM
OVCAR-3 ovarian
  TGI: 25.4 µM
NCI/ADR-RES ovarian
  TGI: 44.8 µM
786-0 renal
  TGI: 33.6 µM
M14 melanoma
  TGI: 18.7 µM
TK-10 renal
  TGI: 55.4 µM
SK-MEL-28 melanoma
  TGI: 25.1 µM
MALME-3M melanoma
  TGI: 31.2 µM
MDA-MB-231 breast
  TGI: 38 µM
UACC-257 melanoma
  TGI: 28.4 µM
MDA-N
  TGI: 38.5 µM
LOX IMVI melanoma
  TGI: 26.2 µM
CAKI-1 renal
  TGI: 39.2 µM
HOP-62 NSCLC
  TGI: 35.2 µM
HOP-92 NSCLC
  TGI: 25.8 µM
HCT-15 colon
  TGI: 29.4 µM
UO-31 renal
  TGI: 18.8 µM
SR leukemia
  TGI: 23.2 µM
SW-620 colon
  TGI: 29.2 µM
SNB-75 CNS
  TGI: 48.8 µM
ACHN renal
  TGI: 24 µM
HL-60(TB) leukemia
  TGI: 5.07 µM
SF-268 CNS
  TGI: 24.7 µM
NCI-H460 lung
  TGI: 27.9 µM
IGROV1 ovarian
  TGI: 30.9 µM
PC-3 prostate
  TGI: 92.3 µM
RXF 393 renal
  TGI: 27.4 µM
SN12C renal
  TGI: 39.1 µM
SK-MEL-2 melanoma
  TGI: > 100 µM
SF-539 CNS
  TGI: 27.1 µM
NCI-H226 lung
  TGI: 58.7 µM
A549 NSCLC
  TGI: 97.5 µM
DU-145 prostate
  TGI: 19 µM
EKVX NSCLC
  TGI: 44.6 µM
T-47D breast
  TGI: 39.6 µM
SK-MEL-5 melanoma
  TGI: 27 µM
KM12 colon
  TGI: 27.4 µM
HCT-116 colon
  TGI: 17.9 µM
COLO 205 colon
  TGI: 25.9 µM
HS 578T breast
  TGI: 95.9 µM
SK-OV-3 ovarian
  TGI: 36.5 µM
SF-295 CNS
  TGI: 50.6 µM
HT29 colon
  TGI: 25.8 µM
UACC-62 melanoma
  TGI: 32.8 µM
OVCAR-5 ovarian
  TGI: 29.1 µM
K-562 leukemia
  TGI: 21.5 µM
SNB-19 CNS
  TGI: 33.6 µM
MCF7 breast
  TGI: 5.49 µM
OVCAR-8 ovarian
  TGI: 30.1 µM
MDA-MB-435
  TGI: 35.5 µM
